Test results reported in PubChem BioAssay (NCI).
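Cultured in 96-well plates, cells were exposed to test compound for 48 hours across five concentrations. TGI: total growth inhibition.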

Key:
Assay in all cases: NCI-60 cell line screen, 48 h
786-0 renal = tested on: 786-0 renal
A549 NSCLC = tested on: A549 NSCLC
COLO 205 colon = tested on: COLO 205 colon
EKVX NSCLC = tested on: EKVX NSCLC
HCT-116 colon = tested on: HCT-116 colon
HL-60(TB) leukemia = tested on: HL-60(TB) leukemia
IGROV1 ovarian = tested on: IGROV1 ovarian
K-562 leukemia = tested on: K-562 leukemia
M14 melanoma = tested on: M14 melanoma
NCI-H23 lung = tested on: NCI-H23 lung
UO-31 renal = tested on: UO-31 renal
RXF 393 renal = tested on: RXF 393 renal

| Compound | TGI (786-0 renal) | TGI (A549 NSCLC) | TGI (COLO 205 colon) | TGI (EKVX NSCLC) | TGI (HCT-116 colon) | TGI (HL-60(TB) leukemia) | TGI (IGROV1 ovarian) | TGI (K-562 leukemia) | TGI (M14 melanoma) | TGI (NCI-H23 lung) | TGI (UO-31 renal) | TGI (RXF 393 renal) |
| --- | --- | --- | --- | --- | --- | --- | --- | --- | --- | --- | --- | --- |
| Nc1ccc(C(=O)NN2C(=O)C(Cl)C2c2ccc([N+](=O)[O-])cc2)cc1 (stereo not given) | 16.6 µM | 25.8 µM | 29.1 µM | 24.4 µM | 4.31 µM | 4.65 µM | 16.6 µM | 36.2 µM | 26.5 µM | 35.6 µM | 30.8 µM |  |
| O=C(Nc1ccccc1)Nn1c(-c2cccs2)nc2ccc(I)cc2c1=O | > 100 µM | 49.4 µM | 53.4 µM | 58.6 µM | > 100 µM | 21.8 µM | 71.7 µM | 10.4 µM | > 100 µM | > 100 µM | 80.3 µM | > 100 µM |
| CC1CC(=O)C(CC(=O)O)C1C(C(=O)C(=O)Nc1c(C#N)cccc1[N+](=O)[O-])[N+](=O)[O-] (stereo not given) | > 100 µM | > 100 µM | > 100 µM | > 100 µM | > 100 µM | > 100 µM | > 100 µM | > 100 µM | > 100 µM | > 100 µM | > 100 µM | > 100 µM |
| CC(C)[Si](OCC1CC(C[C@H]2CC(C[C@H]3C[C@@H](CO[Si](C(C)C)(C(C)C)C(C)C)OC(C)(C)O3)OC(C)(C)O2)OC(C)(C)O1)(C(C)C)C(C)C (stereo not given in full) | > 100 µM | > 100 µM | > 100 µM | > 100 µM | > 100 µM | > 100 µM | > 100 µM | > 100 µM | > 100 µM | > 100 µM | > 100 µM | > 100 µM |
| O=C1SC(c2ccccc2)(c2ccccc2)c2ccccc21 | > 100 µM | > 100 µM | > 100 µM | > 100 µM | > 100 µM | > 100 µM | > 100 µM | > 100 µM | > 100 µM | > 100 µM | > 100 µM | > 100 µM |
| O=C(O)C(Cc1cnc[nH]1)N=Cc1nc(-c2ccccc2)oc1O (stereo not given) | > 100 µM | > 100 µM | > 100 µM | > 100 µM | > 100 µM | > 100 µM | > 100 µM | > 100 µM | > 100 µM | > 100 µM | > 100 µM | > 100 µM |
| Cc1ccc([N+](=O)[O-])cc1NC(=O)C(=O)Cc1cc(=O)oc2cc(O)ccc12 | > 100 µM | > 100 µM | > 100 µM | > 100 µM | 47.5 µM | > 100 µM | > 100 µM | > 100 µM | > 100 µM | > 100 µM | > 100 µM | > 100 µM |
| CC(C)C(Sc1nc(-c2ccccc2)c(-c2ccccc2)[nH]1)C(=O)N/N=C/c1ccc([N+](=O)[O-])cc1 (stereo not given) | 32.1 µM | 66.3 µM | 24.9 µM | 65.6 µM | 28 µM | 33.5 µM | 42.2 µM |  | 21.6 µM | 55.6 µM | 26.5 µM |  |
| Cc1ccc(S(=O)(=O)N/N=C/c2oc(-c3ccccc3Cl)c(-c3ccccc3Cl)c2[N+](=O)[O-])cc1 | 72 µM | > 100 µM | > 100 µM | > 100 µM | 46.6 µM | 39.9 µM | 73.3 µM | > 100 µM | > 100 µM | 29.3 µM | 36 µM | 28.4 µM |
| CCOP(=O)(OCC)/C(C#N)=C/c1ccc[nH]1 | > 100 µM | > 100 µM | > 100 µM |  | > 100 µM | > 100 µM |  | > 100 µM | > 100 µM | > 100 µM | > 100 µM | > 100 µM |
| COc1cc2c(oc(=O)c3cc4ccoc4c(OC)c32)c2cccc(O)c12 | > 100 µM | > 100 µM | > 100 µM | > 100 µM | > 100 µM | > 100 µM | > 100 µM | > 100 µM | > 100 µM | > 100 µM | > 100 µM | > 100 µM |
| COc1ccc(CC2NCCc3cc(OC)c(OC)cc32)cc1 (stereo not given) | > 100 µM | > 100 µM | > 100 µM | > 100 µM | > 100 µM | > 100 µM | > 100 µM |  | > 100 µM | > 100 µM | > 100 µM | > 100 µM |
| CCN(CC)CCC(=O)N1CCc2c([nH]c3ccccc23)C1c1cccnc1 (stereo not given) | > 100 µM | > 100 µM |  | > 100 µM | > 100 µM | > 100 µM | > 100 µM | > 100 µM | > 100 µM | > 100 µM | > 100 µM |  |
| O=C1c2ccccc2C(=O)C2C3c4ccccc4C(c4ccccc43)C12 (stereo not given) | 18.9 µM | > 100 µM | > 100 µM | 68.5 µM | > 100 µM |  | 78.3 µM | 32.2 µM | > 100 µM | > 100 µM | 59.6 µM | 22.7 µM |
| Cc1cc(NS(=O)(=O)c2ccc(NC(=O)c3cccc4cc5ccccc5nc34)cc2)no1 | 32.6 µM | 56.2 µM | 53.4 µM | 90.9 µM | 19.6 µM |  | 64.8 µM | 50.6 µM | 43 µM | 39.3 µM | 19.2 µM | 29.1 µM |
